The target of experiment [1] is T1, NDM-1 (Klebsiella pneumoniae, UniProt C7C422). The format is binding. The note with it: 5 μM NDM-1, 200 μM inhibitor; native NDM-1 TM = 55.95±0.06 °C.
Target sequence in this assay (C7C422 29-270, looked up): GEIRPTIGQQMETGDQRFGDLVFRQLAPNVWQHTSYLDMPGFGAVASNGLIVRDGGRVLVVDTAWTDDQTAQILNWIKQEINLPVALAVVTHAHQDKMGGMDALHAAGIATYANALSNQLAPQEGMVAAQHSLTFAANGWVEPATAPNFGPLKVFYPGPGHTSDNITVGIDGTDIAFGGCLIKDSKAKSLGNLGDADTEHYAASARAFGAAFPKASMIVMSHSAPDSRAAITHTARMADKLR
The target of experiment [2] is T1, NDM-1. Briefly: biochemical. The note with it: for Percent Inhibition against NDM-1: meropenem substrate.
Target sequence in this assay (C7C422 36-270): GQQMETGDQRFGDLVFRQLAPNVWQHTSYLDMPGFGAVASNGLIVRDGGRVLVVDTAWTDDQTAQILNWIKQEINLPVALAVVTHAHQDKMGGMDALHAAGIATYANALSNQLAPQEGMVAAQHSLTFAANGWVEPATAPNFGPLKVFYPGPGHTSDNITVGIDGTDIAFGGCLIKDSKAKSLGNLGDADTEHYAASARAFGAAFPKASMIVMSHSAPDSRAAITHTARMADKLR
The target of experiment [3] is T1, NDM-1. It counts as binding. The note with it: NDM-1 10 μM, inhibitor 50 μM, approximately 5 min incubation.
Target sequence in this assay (C7C422 37-270 limits assumed): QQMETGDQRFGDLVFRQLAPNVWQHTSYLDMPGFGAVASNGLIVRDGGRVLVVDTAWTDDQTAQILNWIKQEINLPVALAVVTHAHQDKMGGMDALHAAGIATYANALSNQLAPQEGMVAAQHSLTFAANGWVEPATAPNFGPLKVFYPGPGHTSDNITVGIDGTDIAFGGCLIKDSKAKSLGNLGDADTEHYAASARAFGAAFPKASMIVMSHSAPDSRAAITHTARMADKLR
The target of a further experiment is VIM-2 (Escherichia coli, UniProt Q5U7L7). The format is binding. The note with it: VIM-2 10 μM, inhibitor 50 μM, approximately 5 min incubation.
Experiment [4] concerns NDM-1. The settings on record: read-out: IC50 against NDM-1; ref 19e, 20; cited from earlier work.
In experiment [5] the test system is NDM-1 expressing Klebsiella pneumoniae. The settings on record: mouse infected with NDM-1 expressing Klebsiella pneumoniae; ref 19e, 20; cited from earlier work.
The conditions of experiment [6]: read-out: Kd for Zn(II) ions; cited from earlier work.
Setting [7] is: read-out: Percent Inhibition against NDM-1.

Where “and” joins values, the source holds several entries; their conditions need not be identical. Equal values may be shown once.

As for `O=C(O)CN(CC(=O)O)Cc1cccs1` [Compound 23a, 2,2’-((Thiophen-2-ylmethyl)azanediyl)diacetic acid], the “∆Tm” value on NDM-1 [1] worked out at 3.1±0.1 °C.
`O=C(O)CN(CC(=O)O)S(=O)(=O)c1cc2ccccc2s1` [Compound 21m, 2,2’-((Benzo[b]thiophen-2-ylsulfonyl)azanediyl)diacetic acid]: the “Percent Inhibition against NDM-1” value at NDM-1 [2] (compound at 250 μM) is recorded as ~ 20%.
On the same count and under the same terms, in the case of `CN(CCC(=O)O)CC(=O)O` [Compound 13a, 3-((Carboxymethyl)(methyl)amino)propanoic acid] it was “complete loss of activity”; in that of `O=C(O)CN(Cc1ccccc1)Cc1nnn[nH]1` [Compound 17, N-((1H-tetrazol-5-yl)methyl)-N-benzylglycine], “comparable to that of 11”.
Turning to `O=C(O)CN(CCc1ccco1)CC(=O)O` [Compound 23f, 2,2’-((2-(Furan-2-yl)ethyl)azanediyl)diacetic acid], at NDM-1 [2], the inhibitory constant (Ki) (as a rule, the equilibrium dissociation constant of an inhibitor or competing ligand from its target) was 2600 nM. Moreover, at NDM-1 [2] (ethyl-linker (23f) versus methyl-linker (23b)), the “fold improvement in inhibitory activity” value worked out at 2.5 fold. Also, at NDM-1 [1], the “∆Tm” value stood at 1.5±0.1 °C. Further, the “Complex observed by native ESI-MS” value was 2Zn: NDM-1:23f at NDM-1 [3] and 2Zn: VIM-2:23f at VIM-2.
As for `O=C(O)CN(CC(=O)O)Cc1ccccc1` [Compound 11], the “Percent Inhibition against NDM-1” value at NDM-1 [2] (compound at 250 μM) is 65%.
Take `Cc1ccc(CN(CC(=O)O)CC(=O)O)o1` [Compound 23d, 2,2’-(((5-Methylfuran-2-yl)methyl)azanediyl)diacetic acid]: the “∆Tm” value on NDM-1 [1] stood at 3.4±0.2 °C. In addition, the “Complex observed by native ESI-MS” value was 2Zn: NDM-1:23d on NDM-1 [3] and 2Zn: VIM-2:23d on VIM-2.
As to `O=C(O)CN(CC(=O)O)Cc1ccoc1` [Compound 21i, 2,2’-((Furan-3-ylmethyl)azanediyl)diacetic acid], the inhibition (commonly the share of the control response that was lost under treatment) at 250 µM on NDM-1 [2] (setting [7]) is about 99%. In addition, on NDM-1 [1], the “∆Tm” value is 3.4±0.3 °C.
For the compound `O=C(O)CN(CC(=O)O)Cc1ccsc1` [Compound 21h, 2,2’-((Thiophen-3-ylmethyl)azanediyl)diacetic acid], on NDM-1 [2] (setting [7]), the inhibition at 250 µM is 64%.
As to `O=C(O)CN(CC(=O)O)S(=O)(=O)c1cccs1` [Compound 21l, 2,2’-((Thiophen-2-ylsulfonyl)azanediyl)diacetic acid], the “Percent Inhibition against NDM-1” value at NDM-1 [2] (compound at 250 μM) is reported as ~ 20%.
In the case of `CN(CC(=O)O)CC(=O)O` [Compound 1], the “Percent Inhibition against NDM-1” value at NDM-1 [2] (compound at 200 μM) was 80%; at NDM-1 [2] (compound at 250 μM), 90%. Moreover, on NDM-1 [1], the “∆Tm” value came out at 1.9±0.2 °C. The “Complex observed by native ESI-MS” value at NDM-1 [3] is 2Zn: NDM-1:1; on VIM-2, 2Zn: VIM-2:1.
On to `O=C(O)CN(CC(=O)O)Cc1ccc(Br)s1` [Compound 23g, 2,2’-(((5-Bromothiophen-2-yl)methyl)azanediyl)diacetic acid], for which, at NDM-1 [1], the “∆Tm” value turned out to be 3.0±0.3 °C.
Take `O=C(O)CN(CC(=O)O)S(=O)(=O)c1ccccc1` [Compound 21j, 2,2’-((Phenylsulfonyl)azanediyl)diacetic acid]: the “Percent Inhibition against NDM-1” value at NDM-1 [2] (compound at 250 μM) was “complete loss of activity”.
Regarding `O=C(O)c1cccc(C(=O)O)n1` [DPA, dipicolinic acid, reference compound], on NDM-1 [1], the “∆Tm” value was −14.5±0.2 °C. Moreover, the “Complex observed by native ESI-MS” value at NDM-1 [3] is 0Zn: NDM-1 and 1Zn: NDM-1 and 2Zn: NDM-1; on VIM-2 it was 0Zn: VIM-2:DPA.
Turning to `O=C(O)CCN(CC(=O)O)Cc1ccccc1` [Compound 13b, 3-(Benzyl(carboxymethyl)amino)propanoic acid], the “Percent Inhibition against NDM-1” value at NDM-1 [2] (compound at 250 μM) is “complete loss of activity”.
`O=C(O)CN(CCc1cccs1)CC(=O)O` [Compound 23e, 2,2’-((2-(Thiophen-2-yl)ethyl)azanediyl)diacetic acid]: the “∆Tm” value at NDM-1 [1] turned out to be 1.7±0.2 °C. Moreover, the “Complex observed by native ESI-MS” value at NDM-1 [3] is on record as 2Zn: NDM-1:23e; at VIM-2 it was 2Zn: VIM-2:23e.
Turning to `Cc1ccc(CN(CC(=O)O)CC(=O)O)s1` [Compound 23c, 2,2’-(((5-Methylthiophen-2-yl)methyl)azanediyl)diacetic acid], the “Complex observed by native ESI-MS” value was 2Zn: NDM-1:23c at NDM-1 [3] and 2Zn: VIM-2:23c at VIM-2.
Regarding `O=C(O)CN(CC(=O)O)Cc1ccc(-c2ccccc2)cc1` [Compound 21b, 2,2’-(([1,1’-Biphenyl]-4-ylmethyl)azanediyl)diacetic acid], at NDM-1 [2] (setting [7]), the inhibition at 250 µM was in the range of 56 to 76%.
As for `O=C(O)CN(CCN(CC(=O)O)CC(=O)O)CC(=O)O` [EDTA, reference compound], the “Complex observed by native ESI-MS” value on NDM-1 [3] is given as “metal free NDM-1”.
For the compound `O=C(O)CN(CC(=O)O)S(=O)(=O)Cc1ccccc1` [Compound 21k, 2,2’-((Benzylsulfonyl)azanediyl)diacetic acid], the “Percent Inhibition against NDM-1” value at NDM-1 [2] (compound at 250 μM) is recorded as “complete loss of activity”.
With `N[C@H](CN[C@H](CN[C@@H](CC(=O)O)C(=O)O)C(=O)O)C(=O)O` [AMA, Aspergillomarasmine A], the IC50 (as a rule, the concentration that inhibits the measured activity by half) in the experiment with NDM-1 [4] is 4 to 7 µM. Moreover, the “ability to restore meropenem activity in vivo” value in experiment [5] was “restore meropenem activity”.
Consider `O=C(O)CNCC(=O)O` [IDA, Iminodiacetic acid], for which the inhibition at 200 µM at NDM-1 [2] (setting [7]) came out at 48%. Moreover, the Kd (usually a measure of binding affinity in units of concentration) in experiment [6] is 32 µM.
Regarding `O=C(O)CN(CC(=O)O)Cc1ccco1` [Compound 23b, 2,2’-((Furan-2-ylmethyl)azanediyl)diacetic acid], the “∆Tm” value on NDM-1 [1] stood at 1.6±0.4 °C.
As for `O=C(O)CN(CCc1ccccc1)CC(=O)O` [Compound 21a, 2,2’-(Phenethylazanediyl)diacetic acid], the inhibition at 250 µM at NDM-1 [2] (setting [7]) was in the range of 56 to 76%.
For `O=C(O)CN(CCP(=O)(O)O)Cc1ccccc1` [Compound 15, N-Benzyl-N-(2-phosphonoethyl)glycine], the “Percent Inhibition against NDM-1” value at NDM-1 [2] (compound at 250 μM) was “no inhibition”.
`O=C(O)CN(CC(=O)O)Cc1cccc(-c2ccccc2)c1` [Compound 21c, 2,2’-(([1,1’-Biphenyl]-3-ylmethyl)azanediyl)diacetic acid]: on NDM-1 [2] (setting [7]), the inhibition at 250 µM fell in the range of 56 to 76%.

These data come from PMC7434514 (ChemMedChem, 2020).
